pIC50: −log10 of the molar value.
What was measured:
[1] = molecular target: T1, MRE11 (Homo sapiens, UniProt P49959); experiment: HTS nuclease assay (cleavage of CY5/BBQ-quenched 5' overhang DNA substrate); format: biochemical; settings: in vitro HTS nuclease assay; 18 nM MRE11, 40 nM DNA substrate; analysis at t=4 h
T1 sequence (P49959 1-708): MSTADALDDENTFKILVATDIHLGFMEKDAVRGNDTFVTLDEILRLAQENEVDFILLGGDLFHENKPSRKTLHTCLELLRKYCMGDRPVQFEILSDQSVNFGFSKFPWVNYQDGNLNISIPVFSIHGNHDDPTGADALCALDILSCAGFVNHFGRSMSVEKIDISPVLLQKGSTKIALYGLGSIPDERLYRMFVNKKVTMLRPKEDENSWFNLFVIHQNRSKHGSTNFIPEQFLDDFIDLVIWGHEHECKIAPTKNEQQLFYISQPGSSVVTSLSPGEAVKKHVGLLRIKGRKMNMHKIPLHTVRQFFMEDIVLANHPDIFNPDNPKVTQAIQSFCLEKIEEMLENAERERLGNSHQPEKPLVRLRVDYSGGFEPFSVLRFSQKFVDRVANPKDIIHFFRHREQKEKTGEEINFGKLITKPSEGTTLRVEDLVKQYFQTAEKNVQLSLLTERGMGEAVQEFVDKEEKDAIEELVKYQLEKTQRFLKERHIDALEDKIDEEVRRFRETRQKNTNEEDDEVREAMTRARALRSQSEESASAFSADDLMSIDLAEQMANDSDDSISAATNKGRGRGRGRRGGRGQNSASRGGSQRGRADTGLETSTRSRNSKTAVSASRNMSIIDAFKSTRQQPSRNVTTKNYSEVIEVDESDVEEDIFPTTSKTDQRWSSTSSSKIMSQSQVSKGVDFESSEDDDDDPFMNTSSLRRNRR

[2] = tested on: DR-GFP U2OS cells; experiment: HR assay (GFP fluorescence after I-SceI transfection, flow cytometry); format: cell-based; settings: Homo sapiens, inhibitor at 25 μM, 72 hours after transfection
Description: DR-GFP U2OS cells (Methods in Molecular Biology 2012, 920, 379.) were transfected with 2.5 μg of I-SceI-expressing pCAGGS vector and treated with the inhibitors at 25 μM concentration. 72 hours after the transfection, the cells were trypsinized and resuspended in 3% BSA in PBS. GFP fluorescence detection was carried out using a BD FACSVerse flow cytometer and data analyzed with FlowJo software.

N#C/C(=C\c1ccc(O)c(-c2ccccc2)c1)C(=O)Nc1nc(-c2ccccc2)cs1 [Preparative Example 211, (E)-2-cyano-3-(6-hydroxy-[1,1′-biphenyl]-3-yl)-N-(4-phenylthiazol-2-yl)acrylamide]
pIC50 [1]: 4.05 to 5.00
inhibition at 25 µM [2]: < 50%

N#C/C(=C\c1ccc(O)c(O)c1)C(=O)Nc1nc(-c2ccccc2Br)cs1 [Preparative Example 170, (E)-N-(4-(2-bromophenyl)thiazol-2-yl)-2-cyano-3-(3,4-dihydroxyphenyl)acrylamide]
pIC50 [1]: > 5.70
inhibition at 25 µM [2]: 50 to 75%

N#C/C(=C\c1ccc(O)c(O)c1)C(=O)Nc1nc(-c2ccc(Oc3ccccc3)cc2)cs1 [Preparative Example 172, (E)-2-cyano-3-(3,4-dihydroxyphenyl)-N-(4-(4-phenoxyphenyl)thiazol-2-yl)acrylamide]
pIC50 [1]: 5.00 to 5.70
inhibition at 25 µM [2]: > 75%

N#C/C(=C\c1ccc(O)c(Cl)c1)C(=O)Nc1nc(-c2ccccc2)cs1 [Preparative Example 201, (E)-3-(3-chloro-4-hydroxyphenyl)-2-cyano-N-(4-phenylthiazol-2-yl)acrylamide]
pIC50 [1]: 5.00 to 5.70
inhibition at 25 µM [2]: 50 to 75%

N#C/C(=C\c1ccc(O)c(O)c1)C(=O)Nc1nc(-c2ccc3ccccc3c2)cs1 [Preparative Example 163, (E)-2-cyano-3-(3,4-dihydroxyphenyl)-N-(4-(naphthalen-2-yl)thiazol-2-yl)acrylamide]
pIC50 [1]: > 5.70
inhibition at 25 µM [2]: > 75%

N#C/C(=C\c1ccc(O)c(O)c1)C(=O)Nc1nc2c(s1)CCCC2 [Preparative Example 191]
pIC50 [1]: > 5.70
inhibition at 25 µM [2]: < 50%

N#C/C(=C\c1cc(Cl)c(O)c(Cl)c1)C(=O)Nc1nc(-c2ccc(Br)cc2)cs1 [Preparative Example 165, (E)-N-(4-(4-bromophenyl)thiazol-2-yl)-2-cyano-3-(3,5-dichloro-4-hydroxyphenyl)acrylamide]
pIC50 [1]: > 5.70
inhibition at 25 µM [2]: 50 to 75%

Cc1sc(NC(=O)/C(C#N)=C/c2ccc(O)c(O)c2)nc1-c1ccccc1 [Preparative Example 194, (E)-2-cyano-3-(3,4-dihydroxyphenyl)-N-(5-methyl-4-phenylthiazol-2-yl)acrylamide]
pIC50 [1]: > 5.70
inhibition at 25 µM [2]: 50 to 75%

N#CC(C(=O)Nc1nc(-c2ccccc2)cs1)=C(c1ccccc1)c1ccc(O)c(O)c1 (mixture of isomers) [Preparative Example 190, (E/Z)-2-cyano-3-(3,4-dihydroxyphenyl)-3-phenyl-N-(4-phenylthiazol-2-yl)acrylamide]
pIC50 [1]: > 5.70
inhibition at 25 µM [2]: > 75%

CC(C)(C)c1cccc(-c2csc(NC(=O)/C(C#N)=C/c3ccc(O)c(O)c3)n2)c1 [Preparative Example 247, (E)-N-(4-(3-(tert-butyl)phenyl)thiazol-2-yl)-2-cyano-3-(3,4-dihydroxyphenyl)acrylamide]
pIC50 [1]: 5.00 to 5.70
inhibition at 25 µM [2]: 50 to 75%

N#C/C(=C\c1ccc(O)c(O)c1)C(=O)Nc1nc(-c2cccc(C#N)c2)cs1 [Preparative Example 180, (E)-2-cyano-N-(4-(3-cyanophenyl)thiazol-2-yl)-3-(3,4-dihydroxyphenyl)acrylamide]
pIC50 [1]: > 5.70
inhibition at 25 µM [2]: 50 to 75%

N#C/C(=C\c1ccc(O)c(O)c1)C(=O)Nc1nc(-c2ccccc2)c(-c2ccccc2)s1 [Preparative Example 176, (E)-2-cyano-3-(3,4-dihydroxyphenyl)-N-(4,5-diphenylthiazol-2-yl)acrylamide]
pIC50 [1]: > 5.70
inhibition at 25 µM [2]: > 75%

CC(C)(O)c1csc(NC(=O)/C(C#N)=C/c2ccc(O)c(O)c2)n1 [Preparative Example 167, (E)-2-cyano-3-(3,4-dihydroxyphenyl)-N-(4-(2-hydroxypropan-2-yl)thiazol-2-yl)acrylamide]
pIC50 [1]: 5.00 to 5.70
inhibition at 25 µM [2]: < 50%

N#C/C(=C\c1ccc(F)c(F)c1)C(=O)Nc1nc(-c2ccccc2)cs1 [Preparative Example 213, (E)-2-cyano-3-(3,4-difluorophenyl)-N-(4-phenylthiazol-2-yl)acrylamide]
pIC50 [1]: 4.05 to 5.00
inhibition at 25 µM [2]: < 50%

Cc1ccc(-c2csc(NC(=O)/C(C#N)=C/c3ccc(O)c(O)c3)n2)cn1 [Preparative Example 232, (E)-2-cyano-3-(3,4-dihydroxyphenyl)-N-(4-(6-methylpyridin-3-yl)thiazol-2-yl)acrylamide]
pIC50 [1]: > 5.70
inhibition at 25 µM [2]: < 50%

N#C/C(=C\c1ccc(C(=O)O)cc1)C(=O)Nc1nc(-c2ccccc2)cs1 [Preparative Example 204, (E)-4-(2-cyano-3-oxo-3-((4-phenylthiazol-2-yl)amino)prop-1-en-1-yl)benzoic acid]
pIC50 [1]: 5.00 to 5.70
inhibition at 25 µM [2]: < 50%

N#C/C(=C\c1ccc([N+](=O)[O-])cc1)C(=O)Nc1nc(-c2ccccc2)cs1 [Preparative Example 209, (E)-2-cyano-3-(4-nitrophenyl)-N-(4-phenylthiazol-2-yl)acrylamide]
pIC50 [1]: 4.05 to 5.00
inhibition at 25 µM [2]: 50 to 75%

N#CC(=Cc1c[nH]cn1)C(=O)Nc1nc(-c2ccccc2)cs1 (racemic) [Preparative Example 214, (E)- and (Z)-2-cyano-3-(1H-imidazol-4-yl)-N-(4-phenylthiazol-2-yl)acrylamide]
pIC50 [1]: 4.05 to 5.00
inhibition at 25 µM [2]: < 50%

Cc1ccc(-c2csc(NC(=O)/C(C#N)=C/c3cc(Cl)c(O)c(Cl)c3)n2)cc1 [Preparative Example 168]
pIC50 [1]: > 5.70
inhibition at 25 µM [2]: > 75%

CC(=O)Nc1cccc(/C=C(\C#N)C(=O)Nc2nc(-c3ccccc3)cs2)c1 [Preparative Example 207, 3-(3-acetamidophenyl)-2-cyano-N-(4-phenylthiazol-2-yl)acrylamide]
pIC50 [1]: 5.00 to 5.70
inhibition at 25 µM [2]: 50 to 75%

N#C/C(=C\c1ccc(O)c2ccccc12)C(=O)Nc1nc(-c2ccccc2)cs1 [Preparative Example 227, (E)-2-cyano-3-(4-hydroxynaphthalen-1-yl)-N-(4-phenylthiazol-2-yl)acrylamide]
pIC50 [1]: 5.00 to 5.70
inhibition at 25 µM [2]: > 75%

N#C/C(=C\c1ccc(O)c(O)c1)C(=O)Nc1nc(-c2cccc(Br)c2)cs1 [Preparative Example 169, (E)-N-(4-(3-bromophenyl)thiazol-2-yl)-2-cyano-3-(3,4-dihydroxyphenyl)acrylamide]
pIC50 [1]: > 5.70
inhibition at 25 µM [2]: > 75%

N#C/C(=C\c1ccc2[nH]c(=O)[nH]c2c1)C(=O)Nc1nc(-c2ccccc2)cs1 [Preparative Example 216, (E)-2-cyano-3-(2-oxo-2,3-dihydro-1H-benzo[d]imidazol-5-yl)-N-(4-phenylthiazol-2-yl)acrylamide]
pIC50 [1]: 4.05 to 5.00
inhibition at 25 µM [2]: < 50%

N#C/C(=C\c1ccc(O)c(O)c1)C(=O)Nc1nc(-c2ccc(C(F)(F)F)cn2)cs1 [Preparative Example 179, (E)-2-cyano-3-(3,4-dihydroxyphenyl)-N-(4-(5-(trifluoromethyl)pyridin-2-yl)thiazol-2-yl)acrylamide]
pIC50 [1]: > 5.70
inhibition at 25 µM [2]: > 75%

Cc1cccnc1-c1csc(NC(=O)/C(C#N)=C/c2ccc(O)c(O)c2)n1 [Preparative Example 239, (E)-2-cyano-3-(3,4-dihydroxyphenyl)-N-(4-(3-methylpyridin-2-yl)thiazol-2-yl)acrylamide]
pIC50 [1]: > 5.70
inhibition at 25 µM [2]: > 75%

N#C/C(=C\c1ccc(O)c(O)c1)C(=O)Nc1nc(-c2cccc(OC(F)(F)F)c2)cs1 [Preparative Example 171, (E)-2-cyano-3-(3,4-dihydroxyphenyl)-N-(4-(3-(trifluoromethoxy)phenyl)thiazol-2-yl)acrylamide]
pIC50 [1]: 5.00 to 5.70
inhibition at 25 µM [2]: 50 to 75%

N#C/C(=C\c1ccc(O)c(O)c1)C(=O)Nc1nc(-c2ccc(Br)s2)cs1 [Preparative Example 219, (E)-N-(4-(5-bromothiophen-2-yl)thiazol-2-yl)-2-cyano-3-(3,4-dihydroxyphenyl) acrylamide]
pIC50 [1]: > 5.70
inhibition at 25 µM [2]: > 75%

N#C/C(=C\c1cc(F)c(O)c(F)c1)C(=O)Nc1nc(-c2ccccc2)cs1 [Preparative Example 212, (E)-2-cyano-3-(3,5-difluoro-4-hydroxyphenyl)-N-(4-phenylthiazol-2-yl)acrylamide]
pIC50 [1]: 4.05 to 5.00
inhibition at 25 µM [2]: < 50%

N#C/C(=C\c1ccc(O)c(O)c1)C(=O)Nc1nc(-c2ccncc2)cs1 [Preparative Example 188, (E)-2-cyano-3-(3,4-dihydroxyphenyl)-N-(4-(pyridin-4-yl)thiazol-2-yl)acrylamide]
pIC50 [1]: > 5.70
inhibition at 25 µM [2]: 50 to 75%

CC(C)(C)c1csc(NC(=O)/C(C#N)=C/c2ccc(O)c(O)c2)n1 [Preparative Example 199, (E)-N-(4-(tert-butyl)thiazol-2-yl)-2-cyano-3-(3,4-dihydroxyphenyl)acrylamide]
pIC50 [1]: > 5.70
inhibition at 25 µM [2]: 50 to 75%

Reference: patent publication US11584742B2 (MASARYKOVA UNIVERZITA, priority 2018, dated 2023)
